By IC50 is commonly meant the concentration at which inhibition is half-maximal. Low values mean inhibition by little substance, high ones a need for much substance.

The structures appear in SMILES notation.

From BindingDB's records for doi:10.7270/Q2RX99Q9 (The Scripps Research Institute Molecular Screening Center, 2013) come the findings set out here.

The target in the assay is Albumin (Bos taurus, UniProt P02769).
Albumin, sequence (P02769 whole entry): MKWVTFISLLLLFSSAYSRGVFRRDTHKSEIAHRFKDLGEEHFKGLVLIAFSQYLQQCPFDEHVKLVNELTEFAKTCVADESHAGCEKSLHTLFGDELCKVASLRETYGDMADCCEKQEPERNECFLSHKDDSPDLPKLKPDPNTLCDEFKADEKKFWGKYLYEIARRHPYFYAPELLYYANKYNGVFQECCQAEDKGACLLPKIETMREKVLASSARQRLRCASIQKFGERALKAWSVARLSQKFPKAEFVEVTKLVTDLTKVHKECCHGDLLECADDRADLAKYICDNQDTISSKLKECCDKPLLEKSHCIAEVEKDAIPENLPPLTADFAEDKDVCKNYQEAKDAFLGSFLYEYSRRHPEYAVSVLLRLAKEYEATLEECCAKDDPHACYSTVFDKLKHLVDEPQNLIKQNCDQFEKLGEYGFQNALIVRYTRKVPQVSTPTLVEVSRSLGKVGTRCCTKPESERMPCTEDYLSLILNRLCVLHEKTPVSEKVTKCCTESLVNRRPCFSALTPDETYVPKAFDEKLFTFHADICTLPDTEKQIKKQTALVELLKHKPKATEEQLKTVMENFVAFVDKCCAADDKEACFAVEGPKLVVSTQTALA
Compound `CC1=CC(/C=N/n2c(COc3ccccc3C)nc3ccccc3c2=O)C(=O)C([N+](=O)[O-])=C1` (stereo not drawn) returned an IC50 of over 94.1 µM. Under `COc1ccc(CC(=O)N/N=C/C2C=C([N+](=O)[O-])C=C(Br)C2=O)cc1` (stereo not drawn) stands over 94.1 µM. On to `CC1=CC(/C=N/n2c(CO[N-][C+](C)c3ccccc3)nc3ccccc3c2=O)C(=O)C([N+](=O)[O-])=C1` (stereo not drawn), for which the IC50 was over 94.1 µM.

The compound `O=C(N/N=C/C1C=CC=C([N+](=O)[O-])C1=O)c1cccs1` (stereo not drawn) gave an IC50 of over 94.1 µM. Under `COC1=CC([N+](=O)[O-])=CC(/C=N/NC(=O)c2cc(C)nc3ccccc23)C1=O` (stereo not drawn) stands over 94.1 µM; under `O=C(N/N=C/C1C=C([N+](=O)[O-])C=CC1=O)c1cccc(N2CCCC2=O)c1` (stereo not drawn), over 94.1 µM. Under `CCOC(=O)C1C(CC)=Nc2ccccc2N=C1NC(=O)Nc1ccc(Cl)c(Cl)c1` (stereo not drawn) stands over 94.1 µM. As for `O=C(NN=CC1=CC(=O)C(=O)CC1)NN=CC1=CC(=O)C(=O)CC1` [1,3-bis[[(Z)-(3-hydroxy-4-oxocyclohexa-2,5-dien-1-ylidene)methyl]amino]urea], the figure is over 94.1 µM; as for `O=C1C([N+](=O)[O-])=CC(Cl)=CC1C=NNC(=S)Nc1ccc(S(=O)(=O)N2CCOCC2)cc1` (stereo not drawn) [1-[[(E)-(3-chloro-5-nitro-6-oxo-1-cyclohexa-2,4-dienylidene)methyl]amino]-3-[4-(4-morpholinylsulfonyl)phenyl]thiourea], over 94.1 µM. For `Nc1nnc(CC(=O)N/N=C/C2C=C([N+](=O)[O-])C=CC2=O)s1` (stereo not drawn) [2-(5-amino-1,3,4-thiadiazol-2-yl)-N'-[(E)-(3-nitro-6-oxo-1-cyclohexa-2,4-dienylidene)methyl]acetohydrazide], the half-inhibitory concentration (IC50) is over 94.1 µM. For the compound `O=C(CNC(=O)c1ccccc1Br)N/N=C/C1C=C([N+](=O)[O-])C=C(Br)C1=O` (stereo not drawn) [2-bromanyl-N-[2-[2-[(E)-(5-bromanyl-3-nitro-6-oxidanylidene-cyclohexa-2,4-dien-1-ylidene)methyl]hydrazinyl]-2-oxidanylidene-ethyl]benzamide], the IC50 was over 94.1 µM. Regarding `O=C1C=CC([N+](=O)[O-])=CC1/C=N/n1c(COc2ccccc2)nc2ccccc2c1=O` (stereo not drawn) [3-[[(E)-(3-nitro-6-oxocyclohexa-2,4-dien-1-ylidene)methyl]amino]-2-(phenoxymethyl)quinazolin-4-one], the IC50 is over 94.1 µM.

As to `O=C1CC(=O)c2c(O)cc(O)c(O)c2C1=O` [4,5,7,8-tetrahydroxy-1,2-naphthoquinone], the half-maximal inhibitory concentration (IC50) was over 94.1 µM. As for `Oc1c(Br)cc(CC=Nc2cc(O)c3cccnc3c2O)cc1Br` [7-[2-(3,5-dibromo-4-hydroxyphenyl)ethylamino]quinoline-5,8-dione], the figure is over 94.2 µM. Consider `Oc1ccc(CN=Nc2ncnc3c2ncn3Cc2ccccc2)cc1O` [(4Z)-2-oxidanyl-4-[[2-[9-(phenylmethyl)purin-6-yl]hydrazinyl]methylidene]cyclohexa-2,5-dien-1-one], for which the IC50 is over 94.1 µM. Under `O=[N+]([O-])c1cc(Br)c(O)c(CN=Nc2nnnn2-c2cccc3ccccc23)c1` [(6E)-2-bromo-6-[[2-(1-naphthalen-1-yltetrazol-5-yl)hydrazinyl]methylidene]-4-nitrocyclohexa-2,4-dien-1-one] stands over 94.1 µM; under `CCc1n[nH]c(=S)n1N=CC1C=C(OC)C=C([N+](=O)[O-])C1=O` (stereo not drawn) [(6E)-6-[[(3-ethyl-5-sulfanylidene-1H-1,2,4-triazol-4-yl)amino]methylidene]-4-methoxy-2-nitro-1-cyclohexa-2,4-dienone], over 94.1 µM. Turning to `C=CCN1C(=O)/C(=N\NC(=O)CNC(=O)/C=C/c2ccco2)c2ccccc21` [(E)-N-[1-Allyl-2-oxo-1,2-dihydro-indol-(3Z)-ylidene-hydrazinocarbonylmethyl]-3-furan-2-yl-acrylamide], the IC50 is over 94.1 µM. Compound `O=C(N/N=C/C1C=C([N+](=O)[O-])C=CC1=O)/C(=C\c1cccs1)NC(=O)c1ccccc1` (stereo not drawn) [MLS000332530] yielded a half-maximal inhibitory concentration (IC50) of over 94.1 µM. Under `Cc1cc(C(=O)N/N=C/C2C=C(Br)C=C([N+](=O)[O-])C2=O)c2ccccc2n1` (stereo not drawn) [MLS000585468] stands over 94.1 µM. As for `Cc1cc(=O)oc2cc(OCC(=O)N/N=C/C3C=C([N+](=O)[O-])C=CC3=O)ccc12` (stereo not drawn) [MLS000588734], the IC50 was over 94.1 µM. As for `COC1=CC(=O)C(/C=N/NC(=O)c2ccncc2)C(OC)=C1[N+](=O)[O-]` (stereo not drawn) [MLS000673335], the figure is over 94.1 µM; as for `Cc1cc2cc(CNC(=O)c3ccc(C)c([N+](=O)[O-])c3)ccc2[nH]1` [MLS000724615], over 94.1 µM; as for `O=C(CSc1nc2ccccc2s1)N/N=C/C1C=C([N+](=O)[O-])C=CC1=O` (stereo not drawn) [MLS000777065], over 94.1 µM. The compound `O=C1C=CC([N+](=O)[O-])=CC1C=NNC(=S)Nc1ccc(Cl)cc1Cl` (stereo not drawn) [MLS000777079] registered an IC50 of over 94.1 µM.

Compound `CC1=CC([N+](=O)[O-])=CC(/C=N/n2c(C)nc3ccccc3c2=O)C1=O` (stereo not drawn) [MLS000778735] came in with an IC50 of over 94 µM. As for `CN1C(=O)C(C=NNC(=O)c2cc3ccccc3cc2O)c2ccccc21` (stereo not drawn) [MLS000912237], the half-maximal inhibitory concentration (IC50) was over 94.1 µM.

With `O=C(N/N=C/C1C=C(Cl)C=C([N+](=O)[O-])C1=O)c1cccc(S(=O)(=O)N2CCOCC2)c1` (stereo not drawn) [MLS002155639], the IC50 was over 94.1 µM. As for `O=C(N/N=C/C1C=C(Cl)C=C([N+](=O)[O-])C1=O)c1ccc2c(c1)OCO2` (stereo not drawn) [N'-[(E)-(3-chloranyl-5-nitro-6-oxidanylidene-cyclohexa-2,4-dien-1-ylidene)methyl]-1,3-benzodioxole-5-carbohydrazide], the figure is over 94.1 µM; as for `Cc1cc(C(=O)N/N=C/C2C=C(Cl)C=C([N+](=O)[O-])C2=O)c2ccccc2n1` (stereo not drawn) [N'-[(E)-(3-chloranyl-5-nitro-6-oxidanylidene-cyclohexa-2,4-dien-1-ylidene)methyl]-2-methyl-quinoline-4-carbohydrazide], over 94.1 µM. As for `CC1=CC([N+](=O)[O-])=CC(/C=N/NC(=O)C2COc3ccccc3O2)C1=O` (stereo not drawn) [N'-[(E)-(5-methyl-3-nitro-6-oxocyclohexa-2,4-dien-1-ylidene)methyl]-2,3-dihydro-1,4-benzodioxine-3-carbohydrazide], the figure is over 94.2 µM; as for `Cc1ccccc1C(=O)Nc1cccc(C(=O)N/N=C/C2C=C(Cl)C=C([N+](=O)[O-])C2=O)c1` (stereo not drawn) [N-(3-{[(2E)-2-(5-chloro-2-hydroxy-3-nitrobenzylidene)hydrazino]carbonyl}phenyl)-2-methylbenzamide], over 94.1 µM. In the case of `Cc1ccc(C(=O)Nc2nc(C(C)(C)C)cs2)s1` [N-(4-tert-butyl-2-thiazolyl)-5-methyl-2-thiophenecarboxamide], the IC50 is over 94.1 µM. On to `O=C(NC(C(=O)NN=CC1C=C([N+](=O)[O-])C=CC1=O)c1n[nH]c(=O)c2ccccc12)c1ccccc1` (stereo not drawn) [N-[2-[2-[(E)-(3-nitro-6-oxidanylidene-cyclohexa-2,4-dien-1-ylidene)methyl]hydrazinyl]-2-oxidanylidene-1-(4-oxidanylidene-3H-phthalazin-1-yl)ethyl]benzamide], for which the IC50 was over 94.1 µM. As for `CC(NNC(=O)c1ccc(-c2ccccc2)cc1)=C1C(=O)c2ccccc2C1=O` [N-[(E)-1-(1,3-dioxoinden-2-yl)ethylideneamino]-4-phenylbenzamide], the figure is over 94.1 µM. Under `O=C(N/N=C/C1C=C([N+](=O)[O-])C=C([N+](=O)[O-])C1=O)/C(=C\c1cccs1)NC(=O)c1ccccc1` (stereo not drawn) [SMR000207704] stands over 94.1 µM; under `O=C1C([N+](=O)[O-])=CC=CC1/C=N/n1cnc2scc(-c3ccc(Cl)cc3)c2c1=O` (stereo not drawn) [SMR000314525], over 94.1 µM. On to `Cc1cc(C(=O)NN=CC2C=C(Cl)C=C([N+](=O)[O-])C2=O)[nH]n1` (stereo not drawn) [SMR000414694], for which the IC50 was over 94.1 µM. Regarding `Cc1c(NC(=S)NN=CC2C=C([N+](=O)[O-])C=CC2=O)c(=O)n(-c2ccccc2)n1C` (stereo not drawn) [SMR000415003], the IC50 is over 94.1 µM. Under `COc1ccc(C(=O)CC=NNC(=O)c2ccc(Cl)cc2)cc1` [SMR000499516] stands over 94.1 µM; under `O=Nc1[nH]c(=O)c(CC(=O)c2ccccc2)nc1NO` [SMR000539633], over 94.2 µM.

The compound `O=C(O)c1ccccc1NS(=O)(=O)c1ccc(N=NCc2ccc(O)c(O)c2)c([N+](=O)[O-])c1` [SMR001238114] came in with an IC50 of over 94.1 µM. As for `CCOC(=O)c1c(C)[nH]c(C(=O)N/N=C/C2C=C([N+](=O)[O-])C=CC2=O)c1C` (stereo not drawn) [ethyl 2,4-dimethyl-5-[[[(E)-(3-nitro-6-oxocyclohexa-2,4-dien-1-ylidene)methyl]amino]carbamoyl]-1H-pyrrole-3-carboxylate], the figure is over 94.1 µM.
